{"source": "patent US12282015B2", "about": "“Systems and methods for testing and screening using compound bound substrates” (Cerus Corporation, priority 2016, dated 2025)", "test_system": "human RBC's", "assay": "Binding of compound to RBC substrate and stability of the surface-bound moiety, anti-acridine antibody staining by flow cytometry (MFI)", "assay_type": "cell-based", "conditions": "at 37° C.; 0.2 mM compound, 2.0 mM GSH, overnight; mAb and polyAb staining", "protocol": "A study was performed to assess binding to RBC substrate by the compound 5-220, which is a non-frangible analog of S-303. This study also compared the stability of the surface bound moiety of the 5-220 compound to the stability of a similarly bound frangible S-303. More specifically, glutathione (GSH) quencher and the 5-220 compound were added to human RBC's substrate at concentrations of 2.0 mM and 0.2 mM, respectively, and then incubated overnight at 37° C. or 4° C. For comparison, GSH quencher and the frangible S-303 compound were similarly added to human RBC's at concentrations of 2.0 mM and 0.2 mM, respectively, and incubated overnight at 37° C. or 4° C. Both the non-frangible 5-220 and frangible S-303 compounds comprise an acridine moiety as part of their structures. Following incubation, the GSH/S-220 and GSH/S-303 treated RBC's were stained with either a mouse monoclonal (mAb) or rabbit polyclonal (polyAb) anti-acridine antibody (also at 4° C. or 37° C.), and the samples analyzed for antibody binding by flow cytometry using standard methods (quantitated as MFI). Both the mAb and polyAb anti-acridine antibodies were generated using the compound 5-197 for immunization.", "data": [{"smiles": "O=C(CCNc1c2ccccc2nc2ccccc12)OCCN(CCCl)CCCl", "note": "[S-303, β-alanine, N-(acridin-9-yl), 2-[bis(2-chloroethyl)amino]ethyl ester]", "values": [{"measurement": "stability of binding to RBC's", "result": "less stable than 5-220 binding to RBC's"}]}]}
